Tests used:
[1] = Therapeutic index, ratio of CC50 for cytotoxicity against HEK293T cells to IC50 for antiviral activity against human immunodeficiency virus expressed in HEK293T cells; assay type: toxicity, cell-based; conditions: read-out: Ratio CC50/IC50
[2] = system: HEK-293T; experiment: Cytotoxicity against HEK293T cells assessed as reduction in cell viability measured after 48 hrs by CellTiter 96 Aqueous One Solution reagent based cell proliferation assay; conditions: human
[3] = molecular target: Cytochrome P450 2D6 (Homo sapiens, UniProt P10635); experiment: Inhibition of human recombinant CYP2D6 expressed in insect microsome using (3-[2-([…]-N-methylammonium)-ethyl]-7-methoxy-4-methylcoumarin iodide as a substrate incubated for 30 mins followed by addition of NADPH regenerating system measured immediately by fluorescence based analysis; assay type: ADME, microsomes
Sequence of Cytochrome P450 2D6 (P10635 whole entry): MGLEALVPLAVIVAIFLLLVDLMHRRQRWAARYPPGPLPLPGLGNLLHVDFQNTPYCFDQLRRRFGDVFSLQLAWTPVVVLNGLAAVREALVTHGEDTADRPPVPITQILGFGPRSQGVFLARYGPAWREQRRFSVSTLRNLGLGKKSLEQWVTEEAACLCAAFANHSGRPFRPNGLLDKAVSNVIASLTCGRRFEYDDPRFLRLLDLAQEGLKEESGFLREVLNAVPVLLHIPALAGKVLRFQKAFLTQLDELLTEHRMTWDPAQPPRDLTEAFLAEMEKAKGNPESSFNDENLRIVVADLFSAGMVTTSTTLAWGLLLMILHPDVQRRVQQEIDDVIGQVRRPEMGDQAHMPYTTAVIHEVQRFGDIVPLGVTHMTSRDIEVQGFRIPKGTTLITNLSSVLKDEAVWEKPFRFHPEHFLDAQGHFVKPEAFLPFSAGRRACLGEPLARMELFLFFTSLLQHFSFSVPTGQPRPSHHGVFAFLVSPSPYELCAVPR

[4] = molecular target: Cytochrome P450 3A4 (Homo sapiens, UniProt P08684); experiment: Inhibition of human recombinant CYP3A4 expressed in insect microsome using 7-benzyloxy-4-trifluoromethylcoumarin as a substrate incubated for 30 mins followed by addition of NADPH regenerating system measured immediately by fluorescence based analysis; assay type: ADME, microsomes
Sequence of Cytochrome P450 3A4 (P08684 whole entry): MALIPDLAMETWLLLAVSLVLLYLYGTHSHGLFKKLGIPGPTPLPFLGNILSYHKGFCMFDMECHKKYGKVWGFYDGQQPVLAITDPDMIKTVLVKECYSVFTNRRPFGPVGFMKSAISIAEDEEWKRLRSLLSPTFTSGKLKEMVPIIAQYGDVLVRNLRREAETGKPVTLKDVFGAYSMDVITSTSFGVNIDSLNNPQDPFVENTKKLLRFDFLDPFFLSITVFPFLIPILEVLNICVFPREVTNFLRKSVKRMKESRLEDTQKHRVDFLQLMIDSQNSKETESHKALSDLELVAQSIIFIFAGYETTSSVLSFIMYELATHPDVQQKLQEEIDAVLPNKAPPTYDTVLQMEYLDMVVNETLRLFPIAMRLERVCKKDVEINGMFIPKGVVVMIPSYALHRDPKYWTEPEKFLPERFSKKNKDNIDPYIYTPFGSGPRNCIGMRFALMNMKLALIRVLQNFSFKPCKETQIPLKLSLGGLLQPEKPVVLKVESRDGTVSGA

[5] = Metabolic stability in human liver microsomes assessed as half life at 3 uM measured up to 30 min in presence of NADPH by LC-MS/MS analysis; assay type: ADME, Microsome; conditions: 0.5 h
[6] = Prodrug conversion in C57BL/6 mouse plasma assessed as AUC(0 to 24 hrs) of TFV metabolite at 10 mg/kg, po measured up to 24 hrs by LC-MS/MS analysis; assay type: ADME, organism-based; design: time < 24 hrs, dose 10 mg/kg, route po; conditions: in vivo
[7] = Ratio of prodrug AUC(0 to 24 hrs) to TFV AUC(0 to 24 hrs) in C57BL/6 mouse plasma at 10 mg/kg, po measured up to 24 hrs by LC-MS/MS analysis; assay type: ADME, organism-based; conditions: in vivo
[8] = Tmax in C57BL/6 mouse liver at 10 mg/kg, po measured up to 24 hrs by LC-MS/MS analysis; assay type: ADME, organism-based
[9] = Cmax in C57BL/6 mouse liver at 10 mg/kg, po measured up to 24 hrs by LC-MS/MS analysis; assay type: ADME, organism-based; design: time < 24 hrs, dose 10 mg/kg, route po; conditions: in vivo
[10] = AUC(0 to 24 hrs) in C57BL/6 mouse liver at 10 mg/kg, po measured up to 24 hrs by LC-MS/MS analysis; assay type: ADME, organism-based; design: time < 24 hrs, dose 10 mg/kg, route po; conditions: in vivo
[11] = Prodrug conversion in C57BL/6 mouse liver assessed as AUC(0 to 24 hrs) of TFV metabolite at 10 mg/kg, po measured up to 24 hrs by LC-MS/MS analysis; assay type: ADME, organism-based; design: time < 24 hrs, dose 10 mg/kg, route po; conditions: in vivo
[12] = Prodrug conversion in C57BL/6 mouse liver assessed as Cmax of TFV metabolite at 10 mg/kg, po measured up to 24 hrs by LC-MS/MS analysis; assay type: ADME, organism-based; design: dose 10 mg/kg, time < 24 hrs, route po; conditions: in vivo
[13] = Tmax in C57BL/6 mouse plasma at 10 mg/kg, po measured up to 24 hrs by LC-MS/MS analysis; assay type: ADME, organism-based; conditions: in vivo
[14] = Cmax in C57BL/6 mouse plasma at 10 mg/kg, po measured up to 24 hrs by LC-MS/MS analysis; assay type: ADME, organism-based; design: dose 10 mg/kg, time < 24 hrs, route po; conditions: in vivo
[15] = AUC(0 to 24 hrs) in C57BL/6 mouse plasma at 10 mg/kg, po measured up to 24 hrs by LC-MS/MS analysis; assay type: ADME, organism-based; design: time < 24 hrs, dose 10 mg/kg, route po; conditions: in vivo
[16] = Half life in C57BL/6 mouse plasma at 10 mg/kg, po measured up to 24 hrs by LC-MS/MS analysis; assay type: ADME, organism-based; conditions: in vivo
[17] = Prodrug conversion in C57BL/6 mouse plasma assessed as Tmax of TFV metabolite at 10 mg/kg, po measured up to 24 hrs by LC-MS/MS analysis; assay type: ADME, organism-based; conditions: in vivo
[18] = Prodrug conversion in C57BL/6 mouse plasma assessed as Cmax of TFV metabolite at 10 mg/kg, po measured up to 24 hrs by LC-MS/MS analysis; assay type: ADME, organism-based; design: time < 24 hrs, dose 10 mg/kg, route po; conditions: in vivo
[19] = system: Human immunodeficiency virus; experiment: Antiviral activity against human immunodeficiency virus expressed in HEK293T cells coexpressing firefly luciferase gene incubated for 48 hrs by Bright-Glo luciferase assay; assay type: functional, organism-based; conditions: Human immunodeficiency virus 1, HEK-293T
[20] = Prodrug conversion in C57BL/6 mouse liver assessed as Tmax of TFV metabolite at 10 mg/kg, po measured up to 24 hrs by LC-MS/MS analysis; assay type: ADME, organism-based; conditions: in vivo
[21] = Ratio of prodrug AUC(0 to 24 hrs) to TFV AUC(0 to 24 hrs) in C57BL/6 mouse liver at 10 mg/kg, po measured up to 24 hrs by LC-MS/MS analysis; assay type: ADME, organism-based; conditions: in vivo
[22] = Plasma protein binding in C57BL/6 mouse at 10 mg/kg, po measured up to 24 hrs by LC-MS/MS; assay type: ADME, organism-based; conditions: read-out: PPB
[23] = Cmax in HBV patients at 50 mg, po qa administered for 28 days; assay type: ADME, organism-based; design: dose 50 mg, time 28 day, route po; conditions: human, in vivo
[24] = Tmax in HBV patients at 50 mg, po qa administered for 28 days; assay type: ADME, organism-based; conditions: human, in vivo, time 28 day
[25] = AUC(0 to 24 hrs) in HBV patients at 50 mg, po qa administered for 28 days; assay type: ADME, organism-based; design: time 28 day, dose 50 mg, route po; conditions: human, in vivo
[26] = Half life in HBV patients at 50 mg, po qa administered for 28 days; assay type: ADME, organism-based; conditions: human, in vivo, time 28 day
[27] = Prodrug conversion in […] patients assessed as Cmax of TFV metabolite at 50 mg, po qa administered for 28 days; assay type: ADME, organism-based; design: time 28 day, dose 50 mg, route po; conditions: human, in vivo, 672 h
[28] = Prodrug conversion in […] patients assessed as AUC(0 to 24 hrs) of TFV metabolite at 50 mg, po qa administered for 28 days; assay type: ADME, organism-based; design: time 28 day, dose 50 mg, route po; conditions: human, in vivo, 672 h
[29] = system: Human immunodeficiency virus; experiment: Potency index, ratio of TFV IC50 to TXL IC50 for antiviral activity against human immunodeficiency virus expressed in HEK293T cells coexpressing firefly luciferase gene incubated for 48 hrs by Bright-Glo luciferase assay; assay type: functional
[30] = C57BL/6, mouse, liver, read-out: Tmax

C[C@H](Cn1cnc2c(N)ncnc21)OCP(=O)(O)OCCCCCCCCCCCCCCCCCC#CC(F)(F)F.N
selectivity ratio [1]: 423 | CC50 [2]: 78.7 µM | IC50 [3]: > 20 µM | IC50 [4]: > 20 µM | t1/2 [5]: > 2 h

C[C@H](Cn1cnc2c(N)ncnc21)OCP(=O)(O)OCCCOCCCCCCCCCCCCCC#CC(F)(F)F.N
AUC [6]: 425 ng·h/mL | Ratio AUC [7]: 1.51 | Tmax [8, 30]: 1 h | Cmax [9]: 558 ng/mL | AUC [10]: 1310 ng·h/mL | AUC [11]: 21900 ng·h/mL | Cmax [12]: 1380 ng/mL | Tmax [13]: 2 h | Cmax [14]: 153 ng/mL | AUC [15]: 643 ng·h/mL | t1/2 [16]: 2.69 h | Tmax [17]: 1 h | Cmax [18]: 42.8 ng/mL | selectivity ratio [1]: > 4350 | CC50 [2]: > 100 µM | IC50 [3]: > 20 µM | IC50 [19]: 0.023 µM | Tmax [20]: 4 h | t1/2 [5]: > 2 h | Ratio AUC [21]: 0.06 | fraction unbound at 24 h [22]: < 0.001

C[C@H](Cn1cnc2c(N)ncnc21)OCP(=O)(O)OCCCCCCCCCCCCCCCCC#C[Si](C)(C)C.N
selectivity ratio [1]: 792 | CC50 [2]: 68.1 µM | IC50 [19]: 0.086 µM | t1/2 [5]: > 2 h

C#CCCCCCCCCCCCCCCOCCCOP(=O)(O)CO[C@H](C)Cn1cnc2c(N)ncnc21.N
selectivity ratio [1]: > 758 | CC50 [2]: > 100 µM | IC50 [3]: > 20 µM | IC50 [4]: > 20 µM | IC50 [19]: 0.132 µM | t1/2 [5]: > 2 h

CCCCCCCCCCCCCCCCSCCCOP(=O)(O)CO[C@H](C)Cn1cnc2c(N)ncnc21.N
selectivity ratio [1]: 4980 | CC50 [2]: 49.8 µM | IC50 [19]: 0.01 µM | t1/2 [5]: 0.7 h

C#CCCCCCCCCCCCCCCCCCCOP(=O)(O)CO[C@H](C)Cn1cnc2c(N)ncnc21.N
selectivity ratio [1]: 84 | CC50 [2]: 99.5 µM | IC50 [4]: > 50 µM | IC50 [19]: 1.18 µM | t1/2 [5]: > 2 h

C[C@H](Cn1cnc2c(N)ncnc21)OCP(=O)(O)OCCCOCCCCCCCCCCCCC#C[Si](C)(C)C.N
AUC [6]: 142 ng·h/mL | Tmax [8, 30]: 4 h | Cmax [9]: 8130 ng/mL | AUC [10]: 101000 ng·h/mL | AUC [11]: 11200 ng·h/mL | Cmax [12]: 671 ng/mL | Tmax [13]: 2 h | Cmax [14]: 120 ng/mL | AUC [15]: 550 ng·h/mL | t1/2 [16]: 2.49 h | Tmax [17]: 12 h | Cmax [18]: 14.1 ng/mL | IC50 [3]: 21.7 µM | IC50 [4]: > 20 µM | IC50 [19]: 0.069 µM | Tmax [20]: 4 h | t1/2 [5]: > 2 h | fraction unbound at 24 h [22]: < 0.001

CCCCCCCCCCCCCCCCOCCCOP(=O)(O)CO[C@H](C)Cn1cnc2c(N)ncnc21.N
AUC [6]: 132 ng·h/mL | Ratio AUC [7]: 2.29 | Tmax ([8]; mouse, in vivo, po, 10 mg/kg, 24 h): 1 h | Cmax [9]: 2730 ng/mL | AUC [10]: 4970 ng·h/mL | AUC [11]: 26100 ng·h/mL | Cmax [12]: 1460 ng/mL | Tmax [13]: 1 h | Cmax [14]: 125 ng/mL | AUC [15]: 301 ng·h/mL | t1/2 [16]: 2.92 h | Tmax [17]: 2 h | Cmax [18]: 19.6 ng/mL | selectivity ratio [1]: 5420 | CC50 [2]: 97.6 µM | Tmax [20]: 17.3 h | t1/2 [5]: 0.7 h | Ratio AUC [21]: 0.19 | fraction unbound at 24 h [22]: < 0.001 | Cmax [23]: 51 ng/mL | Tmax [24]: 1.5 h | AUC at 672 h [25]: 110 ng·h/mL | half-life [26]: 1.5 h | Cmax [27]: 8.5 ng/mL | AUC [28]: 136 ng·h/mL | Ratio IC50 [29]: 89
